biological target: T1, HCV NS5B570n-BK (Hepatitis C virus genotype 1b, UniProt P26663); test: HCV NS5B RNA Polymerase Activity; format: biochemical; conditions: not given
T1 construct: histidine tag (N); made in house; host or cells: E. coli strain M15
Protocol: The enzymatic activity of HCV NS5B570n-BK is measured as incorporation of radiolabeled nucleotide monophosphates into acid insoluble RNA products. Unincorporated radiolabel substrate is removed by filtration and scintillant is added to the washed and dried filter plate containing radiolabeled RNA product. The light emitted by the scintillant is proportional to the amount of RNA product generated by NS5B570n-BK at the endpoint of the reaction.
The N-terminally histidine tagged HCV polymerase, derived from HCV BK strain, genotype 1b (NS5B570n-BK) contains a 21 amino acid deletion at the C-terminus relative to the full-length HCV polymerase and is purified from E. coli strain M15. The construct containing the coding sequence of HCV BK strain amino acid residues 2421-2999 (GenBank accession number M58335) downstream of a […] promoter expression cassette was inserted into plasmid constructs. The plasmid constructs are transformed in E. coli and colonies are inoculated and grown overnight in 10 L of Terrific broth (Tartoff and Hobbs) supplemented with 100 μg/mL ampicillin at 37° C. Protein expression is induced by addition of 1 mM isopropyl-β-D-thiogalactopyranoside (IPTG), when optical densities reaches between 1.5 and 3.5 OD600 and the culture is then incubated for 16- to 18 h at 22° C. NS5B570n-BK is purified to homogeneity using a three step protocol including subsequent column chromatography on Ni-NTA, SP-Sepharose HP and Superdex 75 resins. […]
The amount of light emitted from the scintillant is converted to counts per minute (CPM) on a Topcount® plate reader (Perkin-Elmer, Energy Range: Low, Efficiency Mode: Normal, Count Time: 1 min, Background Subtract: none, Cross talk reduction: Off).
Data is analyzed with GraphPad® Prism® and/or Microsoft® Excel®. […] All data is expressed as a percentage of the positive control. […]

T1 sequence (P26663 2420-2989): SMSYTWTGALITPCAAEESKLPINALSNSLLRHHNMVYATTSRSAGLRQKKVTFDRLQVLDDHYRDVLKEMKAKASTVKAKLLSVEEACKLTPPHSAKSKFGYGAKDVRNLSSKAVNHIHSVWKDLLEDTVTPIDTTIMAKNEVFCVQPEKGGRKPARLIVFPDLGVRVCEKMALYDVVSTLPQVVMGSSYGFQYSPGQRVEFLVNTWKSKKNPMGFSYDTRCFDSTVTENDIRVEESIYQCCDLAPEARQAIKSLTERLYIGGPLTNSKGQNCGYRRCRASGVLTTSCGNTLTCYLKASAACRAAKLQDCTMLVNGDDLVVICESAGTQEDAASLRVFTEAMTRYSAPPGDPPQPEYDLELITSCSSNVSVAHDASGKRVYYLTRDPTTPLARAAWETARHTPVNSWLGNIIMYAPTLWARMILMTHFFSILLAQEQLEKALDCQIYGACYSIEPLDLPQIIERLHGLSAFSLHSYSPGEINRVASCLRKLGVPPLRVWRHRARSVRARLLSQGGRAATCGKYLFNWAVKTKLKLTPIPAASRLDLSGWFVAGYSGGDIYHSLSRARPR

| SMILES | IC50 [nM] |
| --- | --- |
| CC(C)(C)C1C(O)=C(C2=C(C#N)S(=O)(=O)c3cc(NS(C)(=O)=O)ccc3N2)C(=O)N1Cc1ccc(F)cc1 (stereo not shown) [Compound I-19, N-{3-[5-tert-Butyl-1-(4-fluoro-benzyl)-4-hydroxy-2-oxo-2,5-dihydro-1H-pyrrol-3-yl]-2-cyano-1,1-dioxo-1,4-dihydro-1λ^6-benzo[1,4]thiazin-7-yl}-methanesulfonamide] | 6 |
| CC(C)(C)[C@H]1C(O)=C(C2=C(Cl)S(=O)(=O)c3cc(NS(C)(=O)=O)ccc3N2)C(=O)N1Cc1ccc(F)cc1 [Compound I-3, N-{3-[(S)-5-tert-Butyl-1-(4-fluoro-benzyl)-4-hydroxy-2-oxo-2,5-dihydro-1H-pyrrol-3-yl]-2-chloro-1,1-dioxo-1,4-dihydro-1λ^6-benzo[1,4]thiazin-7-yl}-methanesulfonamide] | 2 |

same assay, conditions: NS5B570n-BK, poly A:oligo U16, tritiated UTP incorporation; read-out: Polymerase Assay IC50

| SMILES | IC50 [nM] |
| --- | --- |
| Cc1cc(CN2C(=O)C(C3=C(F)S(=O)(=O)c4cc(NS(C)(=O)=O)ccc4N3)=C(O)[C@@H]2C(C)(C)C)ccc1F [Compound I-18, N-{3-[(S)-5-tert-Butyl-1-(4-fluoro-3-methyl-benzyl)-4-hydroxy-2-oxo-2,5-dihydro-1H-pyrrol-3-yl]-2-fluoro-1,1-dioxo-1,4-dihydro-1λ^6-benzo[1,4]thiazin-7-yl}-methanesulfonamide] | 5 |

system: Renilla luciferase HCV replicon cells (2209-23); test: Renilla luciferase Assay (HCV replicon); format: cell-based; conditions: Huh-7, 72 h; replicon cells 2209-23 (Huh7), three days incubation; read-out: R. luciferase Activity IC50

| SMILES | IC50 [nM] |
| --- | --- |
| CC(C)(C)C1C(O)=C(C2=C(C#N)S(=O)(=O)c3cc(NS(C)(=O)=O)ccc3N2)C(=O)N1Cc1ccc(F)cc1 (stereo not shown) [Compound I-19, N-{3-[5-tert-Butyl-1-(4-fluoro-benzyl)-4-hydroxy-2-oxo-2,5-dihydro-1H-pyrrol-3-yl]-2-cyano-1,1-dioxo-1,4-dihydro-1λ^6-benzo[1,4]thiazin-7-yl}-methanesulfonamide] | 16 |
| CC(C)(C)[C@H]1C(O)=C(C2=C(Cl)S(=O)(=O)c3cc(NS(C)(=O)=O)ccc3N2)C(=O)N1Cc1ccc(F)cc1 [Compound I-3, N-{3-[(S)-5-tert-Butyl-1-(4-fluoro-benzyl)-4-hydroxy-2-oxo-2,5-dihydro-1H-pyrrol-3-yl]-2-chloro-1,1-dioxo-1,4-dihydro-1λ^6-benzo[1,4]thiazin-7-yl}-methanesulfonamide] | 4 |
| Cc1cc(CN2C(=O)C(C3=C(F)S(=O)(=O)c4cc(NS(C)(=O)=O)ccc4N3)=C(O)[C@@H]2C(C)(C)C)ccc1F [Compound I-18, N-{3-[(S)-5-tert-Butyl-1-(4-fluoro-3-methyl-benzyl)-4-hydroxy-2-oxo-2,5-dihydro-1H-pyrrol-3-yl]-2-fluoro-1,1-dioxo-1,4-dihydro-1λ^6-benzo[1,4]thiazin-7-yl}-methanesulfonamide] | 16 |

system: HCV; test: not given; conditions: ribavirin monotherapy; cited from earlier work

| SMILES | patients in whom serum amino transferase levels are reduced to normal [%] |
| --- | --- |
| NC(=O)c1ncn([C@@H]2O[C@H](CO)[C@@H](O)[C@H]2O)n1 [ribavirin, 1-((2R,3R,4S,5R)-3,4-Dihydroxy-5-hydroxymethyl-tetrahydro-furan-2-yl)-1H-[1,2,4]triazole-3-carboxylic acid amide] | 40 |

system: not given; test: not given; conditions: not given

| melting point [°C] | SMILES |
| --- | --- |
| > 250 | CC(C)(C)C1C(O)=C(C2=C(C#N)S(=O)(=O)c3cc(NS(C)(=O)=O)ccc3N2)C(=O)N1CCC1CCCC1 (stereo not shown) |
| 125 to 165 | CCS(=O)(=O)Nc1ccc2c(c1)S(=O)(=O)C(Cl)=C(C1=C(O)[C@H](C(C)(C)C)N(CCC(C)C)C1=O)N2 |
| 210 to 215 | CC1=C(C2=C(O)[C@H](C(C)(C)C)N(CCC(C)C)C2=O)Nc2ccc(NS(C)(=O)=O)cc2S1(=O)=O |
| 147 to 151 | CC(C)(C)[C@H]1C(O)=C(C2=C(Cl)S(=O)(=O)c3cc(NS(C)(=O)=O)ccc3N2)C(=O)N1Cc1ccc(F)c(Cl)c1 |
| 137 to 141 | CC(C)(C)[C@H]1C(O)=C(C2=C(Cl)S(=O)(=O)c3cc(NS(C)(=O)=O)ccc3N2)C(=O)N1CCC1CCCC1 |
| > 250 | Cc1cc(CN2C(=O)C(C3=C(C#N)S(=O)(=O)c4cc(NS(C)(=O)=O)ccc4N3)=C(O)C2C(C)(C)C)ccc1F (stereo not shown) |
| 127 to 131 | Cc1cc(CN2C(=O)C(C3=C(Cl)S(=O)(=O)c4cc(NS(=O)(=O)C5CC5)ccc4N3)=C(O)[C@@H]2C(C)(C)C)ccc1F |
| 136 to 140 | CCS(=O)(=O)Nc1ccc2c(c1)S(=O)(=O)C(Cl)=C(C1=C(O)[C@H](C(C)(C)C)N(Cc3ccc(F)cc3)C1=O)N2 |
| 139 to 144 | COc1cc(CN2C(=O)C(C3=C(Cl)S(=O)(=O)c4cc(NS(C)(=O)=O)ccc4N3)=C(O)[C@@H]2C(C)(C)C)ccc1F |
| 140 | CN(C)C(=O)C1=C(C2=C(O)[C@H](C(C)(C)C)N(Cc3ccc(F)cc3)C2=O)Nc2ccc(NS(C)(=O)=O)cc2S1(=O)=O |
| 218 | COc1cc(CN2C(=O)C(C3=C(C#N)S(=O)(=O)c4cc(NS(C)(=O)=O)ccc4N3)=C(O)C2C(C)(C)C)ccc1F (stereo not shown) |
| 137 to 141 | CC(C)(C)[C@H]1C(O)=C(C2=C(Cl)S(=O)(=O)c3cc(NS(=O)(=O)C4CC4)ccc3N2)C(=O)N1Cc1ccc(F)c(Cl)c1 |
| 142 to 145 | CC(C)CCN1C(=O)C(C2=C(Cl)S(=O)(=O)c3cc(NS(C)(=O)=O)ccc3N2)=C(O)[C@@H]1C(C)(C)C |
| 137 to 141 | CC(C)(C)[C@H]1C(O)=C(C2=C(Cl)S(=O)(=O)c3cc(NS(=O)(=O)C4CC4)ccc3N2)C(=O)N1Cc1ccc(F)cc1 |
| 170 to 174 | CC1=C(C2=C(O)[C@H](C(C)(C)C)N(Cc3ccc(F)cc3)C2=O)Nc2ccc(NS(C)(=O)=O)cc2S1(=O)=O |
| > 250 | CC(C)CCN1C(=O)C(C2=C(C#N)S(=O)(=O)c3cc(NS(C)(=O)=O)ccc3N2)=C(O)C1C(C)(C)C (stereo not shown) |
| 120 | CC(C)(C)[C@H]1c2oc(=O)c3c(c2C(=O)N1Cc1ccc(F)cc1)Nc1ccc(NS(C)(=O)=O)cc1S3(=O)=O |
| 168 to 172 | Cc1cc(CN2C(=O)C(C3=C(C(N)=O)S(=O)(=O)c4cc(NS(C)(=O)=O)ccc4N3)=C(O)[C@@H]2C(C)(C)C)ccc1F |
| 150 to 155 | CC(C)CCN1C(=O)C(C2=C(C(N)=O)S(=O)(=O)c3cc(NS(C)(=O)=O)ccc3N2)=C(O)[C@@H]1C(C)(C)C |
| 148 to 152 | CC(C)(C)[C@H]1C(O)=C(C2=C(Cl)S(=O)(=O)c3cc(NS(C)(=O)=O)ccc3N2)C(=O)N1Cc1ccccc1 |
| 130 to 135 | CCS(=O)(=O)Nc1ccc2c(c1)S(=O)(=O)C(Cl)=C(C1=C(O)[C@H](C(C)(C)C)N(Cc3ccc(F)c(C)c3)C1=O)N2 |
| 140 to 146 | Cc1cc(CN2C(=O)C(C3=C(Cl)S(=O)(=O)c4cc(NS(C)(=O)=O)ccc4N3)=C(O)[C@@H]2C(C)(C)C)ccc1F |
| 140 to 144 | CCS(=O)(=O)Nc1ccc2c(c1)S(=O)(=O)C(Cl)=C(C1=C(O)[C@H](C(C)(C)C)N(Cc3ccc(F)c(Cl)c3)C1=O)N2 |

| SMILES | melting point [°C] |
| --- | --- |
| CC(C)(C)[C@H]1C(O)=C(C2=C(Cl)S(=O)(=O)c3cc(NS(C)(=O)=O)ccc3N2)C(=O)N1Cc1ccc(F)cc1 [Compound I-3, N-{3-[(S)-5-tert-Butyl-1-(4-fluoro-benzyl)-4-hydroxy-2-oxo-2,5-dihydro-1H-pyrrol-3-yl]-2-chloro-1,1-dioxo-1,4-dihydro-1λ^6-benzo[1,4]thiazin-7-yl}-methanesulfonamide] | 144 to 148 |

From patent US7531534B2, “Heterocyclic antiviral compounds” (Roche Palo Alto LLC, priority 2006, dated 2009)
